Source: patent US5100907A, “Hydantoin esters” (Lonza, Inc., priority 1990, dated 1992)
Where two headings read alike, the source gives them in different places.

Key:
[1] = Dispersion stability tests; type: physicochemical
Description: The dispersion stability tests were performed on the esters (I) to determine the extent each was able to disperse itself in an aqueous medium.
The dispersions were prepared by homogenizing a mixture of the test ester and water, after which repeated examination of the sample was effected for a period of 55 days. This test method is fully indicative of the dispersibility of these esters (I).
The dispersion tests were performed with the esters at 0.5% and 5.0% active levels in water, prepared by combining the test ester with distilled water, and homogenizing the mixture for one to three minutes, via a Kika-Werk Ultra-Turrax S D-45 homogenizer. The dispersions were poured into an eight ounce flint jar, capped, and periodically examined over a 55 day period.

Emulsion stability tests = type: physicochemical
Description: Emulsion stability tests were performed on the esters (I), and for comparison on the precursor esters (Ia), to determine the extent to which each stabilized a standardized solution of water and an oil, using a common procedure consisting of homogenizing a mixture containing the test ester (2%), myristyl propionate (7%), and water (91%). While two emulsifiers are normally used to prepare a cosmetic formulation, e.g. one with a high HLB and the other with a low HLB, the test method herein using only one emulsifier, i.e. the test ester, is fully indicative of the emulsifying attributes of these esters.
The tests were performed with emulsions (500 g), prepared by combining the test ester (10.0 g), myristyl propionate (35 g), and distilled water (455 g) in a container and homogenizing the contents for one minute, via a Kika-Werk Ultra-Turrax S D-45 homogenizer. The emulsions were poured into a one pound flint jar, capped, and periodically examined over a 55 day period.

[2] = Physical properties of methylolated MHEDMH esters (I): viscosity; type: physicochemical; conditions: at 25° C.
[3] = Surface tension tests (cmc, Gibbs' Free Energy of Micellation); type: physicochemical; conditions: for ΔG°cmc (Gibbs' Free Energy of Micellation): calculated from cmc by Eq. 1, T=298° K.; for cmc (critical micelle concentration): ester/water solution
Description: Surface tension tests were conducted as to the relationship between the fatty acid aliphatic chain length, i.e. number of carbon atoms, in the esters (I), and their performance as surfactants. The length of the hydrophobic chain of a molecule is considered the major contributing factor to the critical micelle concentration (cmc) value of a surfactant. This value is obtained from surface tension measurement data. The lower the cmc, the more readily the material will form micelles.
The Gibbs' Free Energy of Micellation (ΔG°cmc) and the ΔG°cmc per --CH2 -- can be determined if the cmc is known.
The ΔG°cmc is a calculated value obtained by Equation 1.
ΔG°cmc =2.303RT(log cmc-log[water]) (Eq. 1)
The ΔG°cmc per --CH2 -- value is obtained from the slope of the straight line curve formed from a plot of ΔG°cmc versus the number of carbon atoms in the lipophilic chain.
The cmc values were based on surface tension tests conducted with a tensiometer (Cenco-DuNoug Precision Model #70535, direct reading model) to determine the upward surface tension at the liquid-air surface of the test ester/water solution. The methods used to calibrate the tensiometer, calculate the "correction factor" (used to correct for the difference between the apparent and true surface tension), and collect data, were conducted as described in the manual for the instrument. Sodium lauryl sulfate (SLS) and distilled water were used as reference samples.
On completing data collection, plots of the surface tension (dynes) versus -log of the concentration (mols/liter) were prepared, using only the "corrected" surface tension value, obtained by applying the noted "correction factor" in each case. The […] was found by multiplying the "apparent" surface tension by a calculated correction factor.
The critical micelle concentration (cmc) for each sample was determined by locating the point in the curve where the surface tension first begins to level off, per a known procedure.

[4] = HLB determination (weighted average method); type: physicochemical
From the text: Hydrophilic-Lipophilic Balance or HLB is a means of associating the hydrophilic and lipophilic characteristics between two surfactants. A "weighted average" method was used to determine the HLB of the esters (I), and by comparison of the precursor ester (Ia), in which two emulsifiers of known HLB values along with the test ester were incorporated in a mixture of mineral oil and water. Evaluation and HLB determination of each of a series of prepared emulsion samples were effected by visual inspection.
The HLB of the mixture "m" is calculated from the sum of the HLB contributions of each surfactant, "a", "b", "c", per Equation 2 which describes a system of oil, water, and three surfactants.
Given that [HLB]m, [HLB]a, and [HLB]b, are known, and the ideal amount of "a", "b", and "c" to prepare a perfect emulsion has been determined, then by rearrangement of Eq. 2, the HLB of "c" can be calculated by Equation 3.
To obtain the HLB of the test ester as surfactant "c", a series of formulations was prepared in which the known surfactant sorbitan monostearate (SMS) as "a" and the known surfactant POE 20 sorbitan monostearate (POE 20 SMS) as "b" were varied in amount (wt. %) relative to each other at a constant amount (1 wt. %) of "c", until an optimum emulsion was obtained. Different combinations of "a" and "b" were used to vary the HLB of "c", for emulsifying a 40:56 (wt. %) mixture of paraffin oil and distilled water (totaling 96 wt. %).
To prepare the emulsions, surfactants "a", "b", and "c", and the paraffin oil were combined in a 150 ml beaker and heated slowly with agitation to 70°-80° C. The value of "X" in each formulation was predetermined by rearranging Eq. 3 to solve for X, and then inserting into the equation various [HLB]c values for the test ester (i.e., 2, 3, 4, 5, 6 . . . ). The [HLB]c values chosen reflected a range that would likely contain the actual HLB of the test ester. Hot distilled water (70°-80° C.) was then slowly added with agitation. The total weight of all these reagents was 100 grams. The resulting emulsion was allowed to cool, with continued agitation, until the temperature dropped below 30° C.
A series of emulsions for each test was prepared, one at a time, and then examined as a set. Each sample within the series was evaluated and graded according to the quality of the emulsion by visual examination of droplet size.

[5] = Total available formaldehyde (TF) and free formaldehyde (FF) levels of esters (I); type: physicochemical; conditions: for FF (free formaldehyde) / TF (total available formaldehyde): neat ester, Table 3
From the text: Thus, whether the formaldehyde content is chemically bonded to the hydantoin moiety or is free formaldehyde (FF) in solution, e.g., in water as formaldehyde or methylene glycol [CH2 (OH)2 ], it remains available for biocidal action. Due to this direct relation, the weight percent TF in a given preparation of the ester (I), e.g. a cosmetic formulation, can be predicted accurately, regardless of the level of dilution.

[6] = Solubilities of esters in typical solvents / appearance of samples in water; type: physicochemical
Pseudomonas aeruginosa = assay: Antimicrobial study against Pseudomonas aeruginosa (gram-negative bacteria); type: cell-based; conditions: methylolated C8/10 10,800 ppm, methylolated lauric 11,400 ppm, DMDMH 3,000 ppm, others 14,700 ppm
Description: (§1) The antimicrobial properties of typical esters (I) and (Ia) were tested by minimum inhibitory concentration (MIC) tests, along with certain known substances, against […] strains of organisms: a mold, Aspergillus niger; a gram-positive bacteria, Staphylococcus aureus; and two gram-negative bacteria, Escherichia coli and Pseudomonas aeruginosa. […] These tests were used to determine any effect on biocidal activity of the varying chain length of the ester.
(§2) The known substances, on which identical tests were also performed, included the biocide, dimethyloldimethylhydantoin or DMDMH (iv), and a series of three surfactants, i.e., the three common emulsifiers, sodium lauryl sulfate (SLS); ethylene glycol distearate (EGDS), in the form of the commercial product PEGOSPERSE 50 DS (Lonza Inc.); and polyoxyethylene 20 sorbitan monoleate (POE 20 SMO), in the form of the commercial product GLYCOSPERSE 0 20 (Lonza Inc.).
(§3) The tests entailed contaminating a preexisting micro-colony with a known quantity (ppm, concentration) of test material. Each colony was then examined periodically over a one week period. […] A test was deemed non-efficacious when there was no decrease in colony size. In an effort to avoid any possible solvent effect, the micro-study was conducted in a totally aqueous solvent system without use of any other solvent.

Staphylococcus aureus = assay: Antimicrobial study against Staphylococcus aureus (gram-positive bacteria); type: cell-based; conditions: methylolated C8/10 10,800 ppm, methylolated lauric 11,400 ppm, DMDMH 3,000 ppm, others 14,700 ppm
Description: as §1, §2, §3

Escherichia coli = assay: Antimicrobial study against Escherichia coli (gram-negative bacteria); type: cell-based; conditions: methylolated C8/10 10,800 ppm, methylolated lauric 11,400 ppm, DMDMH 3,000 ppm, others 14,700 ppm
Description: as §1, §2, §3

Aspergillus niger = assay: Antimicrobial study against Aspergillus niger (mold); type: cell-based; conditions: methylolated C8/10 10,800 ppm, methylolated lauric 11,400 ppm, DMDMH 3,000 ppm, others 14,700 ppm
Description: as §1, §2, §3

[7] = 1% active concentration in water

With “2-(3-hydroxymethyl-5,5-dimethyl-1,3-diazacyclopentane-2,4-dion-1-yl)-ethylester of coconut fatty acid [Coconut Methylolated Ester]” the “stability of dispersions in water” value [1] was “stable for weeks”, the “ability to stabilize emulsions” value (Emulsion stability tests) was “the best emulsifiers tested” and the “duration of stabilized emulsions” value (Emulsion stability tests) was “more than 22 days”.
With “2-(3-hydroxymethyl-5,5-dimethyl-1,3-diazacyclopentane-2,4-dion-1-yl)-ethylester of isostearic acid [Isostearic Methylolated Ester]” the “dispersion quality, decreasing order of rank” value [1] was “isostearate>oleate>cocoate>laurate>C8/10ester>>stearate>acetate”, the Viscosity [2] was 957 cts and the surface active properties [3] was “particularly favorable surface active properties”. For the same compound, the “ΔG°cmc (Gibbs' Free Energy of Micellation)” value [3] was -7.13 kcal/mol, the “cmc (critical micelle concentration)” value [3] was 3.0 × 10^-4 mol dm^-3 and the “Average HLB” value [4] was 15.0. For the same compound, the “HLB Range” value [4] was 14-16, the “emulsion quality, decreasing order of rank” value (Emulsion stability tests) was “cocoate, laurate>oleate,isostearate>stearate>C8/10 ester>acetate” and the “Calculated TF” value [5, 7] was 0.062 Wt. %. For the same compound, the “Determined FF” value [5, 7] was 0.0082 Wt. %, the “FF (free formaldehyde)” value [5] was 0.2 Wt. % and the “TF (total available formaldehyde)” value [5] was 6.2 Wt. %.
For `CCCCCCCCCCCCCCCCCC(=O)OCCN1C(=O)N(CO)C(=O)C1(C)C` [Stearic Methylolated Ester, 2-(3-hydroxymethyl-5,5-dimethyl-1,3-diazacyclopentane-2,4-dion-1-yl)-ethylester of stearic acid], the “dispersion quality, decreasing order of rank” value [1] was “isostearate>oleate>cocoate>laurate>C8/10ester>>stearate>acetate”, the “Classification of Dispersion” value ([1]; 0.5% active in water, 3 Days) was 2-Phase and the “Classification of Dispersion” value ([1]; 0.5% active in water, 13 Days) was 2-Phase. The “Classification of Dispersion” value ([1]; 0.5% active in water, 55 Days) was 2-Phase, the “Classification of Dispersion” value ([1]; 5.0% active in water, 3 Days) was 2-Phase and the “Classification of Dispersion” value ([1]; 5.0% active in water, 13 Days) was 2-Phase. The “Classification of Dispersion” value ([1]; 5.0% active in water, 55 Days) was 2-Phase, the “water solubility relative to the other esters” value [6] was “far less soluble in water than the other such esters” and the “Solubility in isopropyl alcohol” value ([6]; 25° C.) was “S (>10 g/100 g Solvent)”. The “Solubility in mineral oil” value ([6]; 25° C.) was “S (>10 g/100 g Solvent)”, the solubility ([6]; water, 25° C., grams, legend per 100 g Solvent) was less than 10000 µg/mL and the “ΔG°cmc (Gibbs' Free Energy of Micellation)” value [3] was -5.277 kcal/mol. The “cmc (critical micelle concentration)” value [3] was 7.0 × 10^-3 mol dm^-3, the “Average HLB” value [4] was 7.0 and the “HLB Range” value [4] was 6-8. For the same compound, the “Average HLB” value ([4]; listed as stearate (I)) was 7, the “emulsion quality, decreasing order of rank” value (Emulsion stability tests) was “cocoate, laurate>oleate,isostearate>stearate>C8/10 ester>acetate” and the “Classification of Emulsion” value (Emulsion stability tests; 2 Hours after preparation, 2% ester, 7% myristyl propionate, 91% water) was “Good/OK”. For the same compound, the “Calculated TF” value [5, 7] was 0.064 Wt. %, the “Determined FF” value [5, 7] was 0.0066 Wt. % and the “Ratio FF/TF” value [5, 7] was 0.103. The “FF (free formaldehyde)” value [5] was 0.2 Wt. % and the “TF (total available formaldehyde)” value [5] was 6.4 Wt. %.
In the case of `CCCCCCCCCCCC(=O)OCCN1C(=O)NC(=O)C1(C)C` [Non-Methylolated Lauric Ester, 2-(5,5-dimethyl-1,3-diazacyclopentane-2,4-dion-1-yl)-ethyl ester of lauric acid], the “Colony Count” value (Pseudomonas aeruginosa; Day 0) is reported as “TNC”, the “Colony Count” value (Pseudomonas aeruginosa; Day 1) is reported as “TNC” and the “Colony Count” value (Pseudomonas aeruginosa; Day 2) is reported as “TNC”. For the same compound, the “Colony Count” value (Pseudomonas aeruginosa; Day 3) was 250 × 1,000, the “Colony Count” value (Pseudomonas aeruginosa; Day 7) was “TNC” and the “Average HLB” value [4] was 6.5. The “HLB Range” value [4] was 5-7, the “Colony Count” value (Staphylococcus aureus; Day 0) was “TNC” and the “Colony Count” value (Staphylococcus aureus; Day 1) was 500 × 1,000. The “Colony Count” value (Staphylococcus aureus; Day 2) was 3,000 × 1,000, the “Colony Count” value (Staphylococcus aureus; Day 3) was “TNC” and the “Colony Count” value (Staphylococcus aureus; Day 7) was 30 × 1,000. For the same compound, the “Colony Count” value (Escherichia coli; Day 0) was “TNC”, the “Colony Count” value (Escherichia coli; Day 1) was “TNC” and the “Colony Count” value (Escherichia coli; Day 2) was “TNC”. The “Colony Count” value (Escherichia coli; Day 3) was “TNC”, the “Colony Count” value (Escherichia coli; Day 7) was “TNC” and the “Colony Count” value (Aspergillus niger; Day 0) was 300 × 1,000. For the same compound, the “Colony Count” value (Aspergillus niger; Day 1) was 200 × 1,000, the “Colony Count” value (Aspergillus niger; Day 2) was 200 × 1,000 and the “Colony Count” value (Aspergillus niger; Day 3) was 220 × 1,000. The “Colony Count” value (Aspergillus niger; Day 7) was 150 × 1,000.
